In patent US20120220562A1, “Anti-Viral Compounds” (ABBOTT LABAORATORIES, priority 2011, published 2012):

test system: HCV 1b-Con1 replicon; experiment: HCV 1b-Con1 replicon assay in the presence of 5% FBS; assay type: cell-based; details: Hepatitis C virus

Structure (SMILES) | EC50 [nM]
COC(=O)N[C@H](C(=O)N1CCC[C@H]1c1nc2cc([C@H]3CC[C@H](c4cc5nc([C@@H]6CCCN6C(=O)[C@@H](NC(=O)OC)[C@@H](C)OC)[nH]c5cc4F)N3c3cc(F)c(N4CCN(c5c(F)cccc5F)CC4)c(F)c3)c(F)cc2[nH]1)[C@@H](C)OC [Example 3.48, methyl {(2S,3R)-1-[(2S)-2-{5-[(2R,5R)-1-{4-[4-(2,6-difluorophenyl)piperazin-1-yl]-3,5-difluorophenyl}-5-(6-fluoro-2-{(2S)-1-[N-(methoxycarbonyl)-O-methyl-L-threonyl]pyrrolidin-2-yl}-1H-benzimidazol-5-yl)pyrrolidin-2-yl]-6-fluoro-1H-benzimidazol-2-yl}pyrrolidin-1-yl]-3-methoxy-1-oxobutan-2-yl}carbamate] | < 0.1
COC(=O)N[C@H](C(=O)N1[C@H](c2nc3cc([C@H]4CC[C@H](c5ccc6[nH]c([C@@H]7C[C@@H]8CCC[C@@H]8N7C(=O)[C@@H](NC(=O)OC)C7CCOCC7)nc6c5)N4c4cc(F)c(N5CCCCC5)c(F)c4)ccc3[nH]2)C[C@@H]2CCC[C@@H]21)C(C)C [Example 10.1, methyl [(1S)-2-[(2S,3aS,6aS)-2-{5-[(2R,5R)-1-[3,5-difluoro-4-(piperidin-1-yl)phenyl]-5-{2[(2S,3aS,6aS)-1-{(2S)-2-[(methoxycarbonyl)amino]-3-methylbutanoyl}octahydrocyclopenta[b]pyrrol-2-yl]-1H-benzimidazol-5-yl}pyrrolidin-2-yl]-1H-benzimidazol-2-yl}hexahydrocyclopenta[b]pyrrol-1(2H)-yl]-2-oxo-1-(tetrahydro-2H-pyran-4-yl)ethyl]carbamate] | < 0.1
O=C([C@@H]1CCCO1)N1CCC[C@H]1c1nc2cc([C@H]3CC[C@H](c4ccc5[nH]c([C@@H]6CCCN6C(=O)[C@@H]6CCCO6)nc5c4)N3c3cc(F)c(N4CCC(c5ccccc5)CC4)c(F)c3)ccc2[nH]1 [Example 3.31, ({(2R,5R)-1-[3,5-difluoro-4-(4-phenylpiperidin-1-yl)phenyl]pyrrolidine-2,5-diyl}bis[1H-benzimidazole-5,2-diyl(2S)pyrrolidine-2,1-diyl])bis[(2S)-tetrahydrofuran-2-ylmethanone]] | < 0.1
COC(=O)N[C@H](C(=O)N1CCC[C@H]1c1nc2ccc([C@H]3CC[C@H](c4ccc5nc([C@@H]6CCCN6C(=O)[C@@H](NC(=O)OC)C(C)C)[nH]c5c4)N3c3ccc(S(C)(=O)=O)c(F)c3)cc2[nH]1)C(C)C [Example 2.7, methyl {(2S)-1-[(2S)-2-{6-[(2R,5R)-1-[3-fluoro-4-(methylsulfonyl)phenyl]-5-{2-[(2S)-1-{(2S)-2-[(methoxycarbonyl)amino]-3-methylbutanoyl}pyrrolidin-2-yl]-1H-benzimidazol-6-yl}pyrrolidin-2-yl]-1H-benzimidazol-2-yl}pyrrolidin-1-yl]-3-methyl-1-oxobutan-2-yl}carbamate] | 1 to 10
COC(=O)N[C@H](C(=O)N1C[C@H](F)C[C@H]1c1nc2cc([C@H]3CC[C@H](c4ccc5[nH]c([C@@H]6C[C@@H](F)CN6C(=O)[C@@H](NC(=O)OC)C(C)C)nc5c4)N3c3cc(F)c(N4CCCCC4)c(F)c3)ccc2[nH]1)C(C)C [Example 4.59, methyl {(2S)-1-[(2S,4R)-2-{5-[(2R,5R)-1-[3,5-difluoro-4-(piperidin-1-yl)phenyl]-5-{2-[(2S,4R)-4-fluoro-1-{(2S)-2-[(methoxycarbonyl)amino]-3-methylbutanoyl}pyrrolidin-2-yl]-1H-benzimidazol-5-yl}pyrrolidin-2-yl]-1H-benzimidazol-2-yl}-4-fluoropyrrolidin-1-yl]-3-methyl-1-oxobutan-2-yl}carbamate] | < 0.1
